From US8058242B2, “Chimeric proteins with natriuretic activity” (The University of Queensland, priority 2004, dated 2011)
Several values for one entry are separate records, joined by “and”; a condition that tells them apart may be missing. Identical values can stand only once. Positions of bridges follow the written chain, without caps; N, C: chain ends. Residues, ends and D or L forms follow the SMILES beside them.

What was measured:
[1] = test system: endothelium-intact aortic rings (NPR-C mediated); experiment: Aortic ring relaxation, endothelium-intact rings pre-contracted with 40 mM KCl (Example 3); design: species or system rat; settings: endothelium-intact rat aortas pre-contracted with 40 mM KCl; peptide 0.1 μM
Experimental: (§1) Male Sprague Dawley rats were killed and the descending thoracic aorta rapidly removed and flushed with physiological solution. After being cleared of adhering fat and connective tissue, 5 mm rings were mounted under 10 g resting tension, between two stainless steel hooks, in organ baths (37° C.) containing carbogenated (95% O2 and 5% CO2) physiological salt solution of the following composition (mM): NaCl, 118.4; NaHCO3, 25; glucose, 11; KCl, 4.7; MgSO4, 1.2; KH2PO4, 1.2 and CaCl2, 2.5. The lower hook was attached to a tissue holder and the upper hook to a force displacement transducer (Grass FTO3). Where indicated endothelial cells were removed by gentle rubbing of the intimal surface with a wire. To confirm the presence or absence of endothelial cells, tissues were precontracted with a sub-maximal concentration of phenylephrine (0.3 μM) and the response to acetylcholine (ACh, 10 μM) observed. Ach-induced relaxation greater than 80% of maximum indicated the presence of endothelium; whereas Ach-induced relaxation less than 10% indicated the absence of endothelium. Ring preparations under resting tension were conditioned by two contraction/relaxation cycles with 40 mM KCl, contracted by a third application of 40 mM KCl and then relaxed with different doses of the venom peptides. Responses were expressed as a percentage relaxation of the precontraction by KCl.

[2] = test system: endothelium-denuded aortic rings (GC-A mediated); experiment: Aortic ring relaxation, endothelium-denuded rings pre-contracted with 40 mM KCl (Example 3); design: species or system rat; settings: endothelium-denuded rat aortas pre-contracted with 40 mM KCl; peptide 0.1 μM
Experimental: as §1

Plasmin = target: T1, Plasmin (Homo sapiens, UniProt P00747); experiment: Stability to enzymatic degradation by plasmin (Examples 7, 16); assay type: in vitro ADME; settings: plasmin, 37° C.; for half-life at 125 μM: plasmin in Tris/HCl-NaCl buffer, read-out: HalfLife in plasmin
T1 construct: with 500 ng Endopeptidase (NEP) or 10 μg Plasmin
T1 sequence (P00747 97-580 partner limits assumed, species assumed): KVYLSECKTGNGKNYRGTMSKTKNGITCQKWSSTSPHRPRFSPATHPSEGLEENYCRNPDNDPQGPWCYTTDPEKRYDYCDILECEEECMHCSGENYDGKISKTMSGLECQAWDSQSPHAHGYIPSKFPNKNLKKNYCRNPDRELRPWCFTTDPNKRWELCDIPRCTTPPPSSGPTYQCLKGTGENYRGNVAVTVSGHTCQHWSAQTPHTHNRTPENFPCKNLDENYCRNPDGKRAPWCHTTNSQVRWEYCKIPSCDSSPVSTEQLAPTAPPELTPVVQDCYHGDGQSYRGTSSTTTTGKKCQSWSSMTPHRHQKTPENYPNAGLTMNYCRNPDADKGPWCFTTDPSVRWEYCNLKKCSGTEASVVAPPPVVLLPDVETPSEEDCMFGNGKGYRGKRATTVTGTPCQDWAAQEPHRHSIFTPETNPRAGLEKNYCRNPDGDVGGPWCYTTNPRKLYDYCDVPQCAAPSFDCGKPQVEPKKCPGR
T1 sequence (P00747 581-810 limits assumed, species assumed): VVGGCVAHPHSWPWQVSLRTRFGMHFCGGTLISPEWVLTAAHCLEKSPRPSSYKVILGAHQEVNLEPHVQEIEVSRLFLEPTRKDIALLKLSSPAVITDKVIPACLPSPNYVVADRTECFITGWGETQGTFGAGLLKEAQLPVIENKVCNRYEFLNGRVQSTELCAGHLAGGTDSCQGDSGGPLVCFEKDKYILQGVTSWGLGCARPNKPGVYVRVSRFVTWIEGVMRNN
Experimental: The incubation buffer contained 100 mM Tris/HCl and 150 mM NaCl and the pH was adjusted to 7.2-7.4. In each assay, 100 μl of peptide [500 μM] was incubated with 300 μl buffer (with 500 ng Endopeptidase (NEP) or 10 μg Plasmin) at 37° C. 50 μl aliquots were taken at times 5 min, 30 min, 60 min, 90 min, 180 min and 24 h. The reaction was quenched by heating to 100° C. for 4 min and the remaining peptide concentrations measured by RP-HPLC. Note that the levels of Plasmin required to degrade these peptides was several thousands time the levels present in human plasma.
The stability of TDT and was investigated using the same enzymatic degradation assays (NEP, plasmin, pepsin) disclosed in Example 7. […] It is also evident that the increased NEP stability cannot be explained by the length of the tail region alone as the NEP cleavage site residues at the N-terminal end of the loop region.

[3] = target: T2, Natriuretic Peptide Receptor-A (NPR-A) signaling in MDCK cells (Canis lupus familiaris, UniProt A0A8I3MHU3); assay type: cell-based, canine; settings: stimulation of cGMP accumulation in MDCK cells
T2 sequence (A0A8I3MHU3 32-1060): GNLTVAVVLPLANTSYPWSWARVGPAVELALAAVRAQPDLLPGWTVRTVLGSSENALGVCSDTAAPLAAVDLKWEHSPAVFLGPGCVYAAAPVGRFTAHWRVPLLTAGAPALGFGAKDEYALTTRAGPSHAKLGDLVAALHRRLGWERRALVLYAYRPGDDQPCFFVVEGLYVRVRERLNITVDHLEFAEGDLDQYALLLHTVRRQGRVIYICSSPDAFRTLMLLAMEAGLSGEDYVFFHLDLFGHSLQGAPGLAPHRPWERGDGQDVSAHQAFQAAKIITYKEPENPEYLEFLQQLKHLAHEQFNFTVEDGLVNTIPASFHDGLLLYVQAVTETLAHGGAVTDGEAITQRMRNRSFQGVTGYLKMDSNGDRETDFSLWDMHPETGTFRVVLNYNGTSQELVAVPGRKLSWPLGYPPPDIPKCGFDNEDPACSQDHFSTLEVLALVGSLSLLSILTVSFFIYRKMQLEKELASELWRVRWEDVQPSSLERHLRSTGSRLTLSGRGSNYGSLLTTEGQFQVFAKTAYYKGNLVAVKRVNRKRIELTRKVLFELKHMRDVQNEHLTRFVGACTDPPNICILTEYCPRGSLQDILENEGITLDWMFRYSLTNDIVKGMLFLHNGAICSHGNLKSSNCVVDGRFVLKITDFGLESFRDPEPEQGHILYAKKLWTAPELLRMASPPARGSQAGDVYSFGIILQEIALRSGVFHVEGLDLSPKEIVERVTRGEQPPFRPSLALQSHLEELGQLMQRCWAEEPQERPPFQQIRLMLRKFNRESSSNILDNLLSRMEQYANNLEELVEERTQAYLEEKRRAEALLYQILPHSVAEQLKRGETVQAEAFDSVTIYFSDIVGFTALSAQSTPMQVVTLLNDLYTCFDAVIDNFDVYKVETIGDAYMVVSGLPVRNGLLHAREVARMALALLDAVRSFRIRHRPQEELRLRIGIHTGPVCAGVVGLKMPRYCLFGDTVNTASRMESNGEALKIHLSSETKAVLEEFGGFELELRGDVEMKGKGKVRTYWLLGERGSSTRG

conscious rabbits = experiment: Blood pressure and heart rate in conscious rabbits, intravenous infusion dose-response (Example 8); settings: for Diastolic BP, Average Response SED / HR, Average Response SED / Mean BP (MAP), Average Response SED / Systolic BP, Average Response SED: average of the 3 doses 1.0, 2.0, 4.0 μg/kg/min; for Diastolic BP, mean difference from control / HR, mean difference from control / Mean BP, mean difference from control / Systolic BP, mean difference from control: 45 min
[4] = after 1 hour recovery period, Table 10A

Row | Compound | percentage relaxation of the precontraction by KCl [1] | percentage relaxation of the precontraction by KCl [2] | half-life at 125 μM (Plasmin) | K (one phase exponential decay, best fit values) (Plasmin) | PLATEAU (one phase exponential decay, best fit values) (Plasmin) | SPAN (one phase exponential decay, best fit values) (Plasmin) | −Log10 EC50 (pEC50) ± Standard Error [3] | Recovery (MAP) (conscious rabbits; [4]) | Diastolic BP, Average Response SED (conscious rabbits) | HR, Average Response SED (conscious rabbits) | Mean BP (MAP), Average Response SED (conscious rabbits) | Systolic BP, Average Response SED (conscious rabbits) | MAP at final dose (conscious rabbits; highest dose, Table 10A) | Diastolic BP, mean difference from control (conscious rabbits; i.v. infusion 1.0 μg/kg/min) | HR, mean difference from control (conscious rabbits; i.v. infusion 1.0 μg/kg/min) | Mean BP, mean difference from control (conscious rabbits; i.v. infusion 1.0 μg/kg/min) | Systolic BP, mean difference from control (conscious rabbits; i.v. infusion 1.0 μg/kg/min) | Diastolic BP, mean difference from control (conscious rabbits; i.v. infusion 2.0 μg/kg/min) | HR, mean difference from control (conscious rabbits; i.v. infusion 2.0 μg/kg/min) | Mean BP, mean difference from control (conscious rabbits; i.v. infusion 2.0 μg/kg/min) | other results
1 | CC[C@H](C)[C@@H]1NC(=O)[C@H](CCCCN)NC(=O)[C@H](Cc2c[nH]cn2)NC(=O)CNC(=O)[C@H](Cc2ccccc2)NC(=O)[C@@H](NC(=O)[C@@H]2CCCN2C(=O)[C@H](CC(=O)O)NC(=O)[C@H](Cc2ccc(O)cc2)NC(=O)[C@H](CCCCN)NC(=O)[C@@H](NC(=O)[C@@H](N)CCC(=O)O)C(C)C)CSSC[C@@H](C(=O)N2CCC[C@H]2C(=O)N[C@@H](CO)C(=O)N[C@@H](CC(C)C)C(=O)N[C@@H](CCCNC(=N)N)C(=O)N[C@@H](CC(=O)O)C(=O)N2CCC[C@H]2C(=O)N[C@@H](CCCNC(=N)N)C(=O)N2CCC[C@H]2C(=O)N[C@@H](CC(N)=O)C(=O)N[C@@H](C)C(=O)N2CCC[C@H]2C(=O)N[C@@H](CO)C(=O)N[C@H](C(=O)N[C@@H](CO)C(=O)N[C@@H](C)C(=O)O)[C@@H](C)O)NC(=O)CNC(=O)[C@H](CC(C)C)NC(=O)[C@H](CC(N)=O)NC(=O)[C@H](CO)NC(=O)[C@H](C(C)C)NC(=O)[C@H](Cc2c[nH]cn2)NC(=O)[C@H](CC(N)=O)NC(=O)[C@H]([C@@H](C)CC)NC(=O)[C@H](CCCNC(=N)N)NC(=O)[C@H](CC(=O)O)NC1=O [DNP, reference compound] (H-EVKYDPCFGHKIDRINHVSNLGCPSLRDPRPNAPSTSA-OH; disulfide 7-23; N-terminus and C-terminus assumed) | ~100% | ~100% | 29.1 min | 0.02381 | 0.1675 | 0.7306 | 8.080 ± 1.411 | 61.4 mm Hg | −9.0 ± 0.9 mmHg | 17.3 ± 6.4 bpm | −14.2±0.8 mmHg | −13.3 ± 0.8 mmHg | 58.9 mm Hg | −8.5 mmHg | 17.5 bpm | −13.0 mmHg | −11.7 mmHg | −6.9 mmHg | 25.9 bpm | −12.6 mmHg | Recovery Delta SED (MAP) (conscious rabbits; [4]): 2.5 ± 1.1 mm Hg; Treatment Effect, change of mean blood pressure during the infusion (conscious rabbits; highest dose, Table 10A, groups 1, 2A and 3): −17.2 mm Hg; Systolic BP, mean difference from control (conscious rabbits; i.v. infusion 2.0 μg/kg/min): −11.9 mmHg; Diastolic BP, mean difference from control (conscious rabbits; i.v. infusion 4.0 μg/kg/min): −11.7 mmHg; HR, mean difference from control (conscious rabbits; i.v. infusion 4.0 μg/kg/min): 8.5 bpm; Mean BP, mean difference from control (conscious rabbits; i.v. infusion 4.0 μg/kg/min): −17.2 mmHg; Systolic BP, mean difference from control (conscious rabbits; i.v. infusion 4.0 μg/kg/min): −16.4 mmHg
2 | CC[C@H](C)[C@H](NC(=O)[C@H](CCCCN)NC(=O)[C@H](CO)NC(=O)[C@H](CC(=O)O)NC(=O)[C@@H](N)CO)C(=O)NCC(=O)N[C@@H](CC(N)=O)C(=O)NCC(=O)N[C@H]1CSSC[C@@H](C(=O)N[C@@H](CC(N)=O)C(=O)N[C@@H](CCCNC(=N)N)C(=O)N[C@H](C(=O)N[C@@H](CCSC)C(=O)N[C@@H](CCC(N)=O)C(=O)N[C@@H](CC(N)=O)C(=O)N2CCC[C@H]2C(=O)N2CCC[C@H]2C(=O)N[C@@H](CCCCN)C(=O)N[C@@H](CCCCN)C(=O)N[C@@H](Cc2ccccc2)C(=O)N[C@@H](CO)C(=O)NCC(=O)N[C@@H](CCC(=O)O)C(=O)O)[C@@H](C)CC)NC(=O)CNC(=O)[C@H](CC(C)C)NC(=O)CNC(=O)[C@H](CO)NC(=O)[C@H](C(C)C)NC(=O)[C@H](CO)NC(=O)CNC(=O)[C@H]([C@@H](C)CC)NC(=O)[C@H](CCCNC(=N)N)NC(=O)[C@H](CC(=O)O)NC(=O)[C@H](CC(C)C)NC(=O)[C@@H]2CCCN2C(=O)[C@H](Cc2ccccc2)NC(=O)CNC(=O)[C@H](Cc2ccccc2)NC1=O [TNPc] (H-SDSKIGNGCFGFPLDRIGSVSGLGCNRIMQNPPKKFSGE-OH; disulfide 9-25) | ~100% | ~100% | 23.6 min | 0.02935 | 0.1128 | 0.8454 | 6.928 ± 0.1122 | 56.6 mm Hg and 58.8 mm Hg | −12.5 ± 0.6 mmHg | 4.7 ± 3.8 bpm | −14.9±0.7 mmHg | −13.2 ± 0.8 mmHg | 56.1 mm Hg and 58.9 mm Hg | −10.0 mmHg | −3.5 bpm | −11.0 mmHg | −9.1 mmHg | −14.7 mmHg | 3.7 bpm | −17.7 mmHg | EC50 ([3]; read-out: EC50 (M) ± Standard Error): 1.84e-07 M; recovery of MAP, in words (conscious rabbits; 2 hours after infusion): remained suppressed for 2 hours; MAP at final dose (conscious rabbits; Table 10B): 58.9 mm Hg and 61.3 mm Hg; Recovery (MAP) (conscious rabbits; after a 2 hour recovery period, Table 10B): 58.8 mm Hg and 66.1 mm Hg; effective half life compared to BNP (conscious rabbits; bolus injection): 3 fold; time taken to recover to 50% of the peak response (conscious rabbits; bolus injection of 0.24 mg/kg TNPc or equivalent molar dose of BNP): 225 min; Systolic BP, mean difference from control (conscious rabbits; i.v. infusion 2.0 μg/kg/min): −15.6 mmHg; Diastolic BP, mean difference from control (conscious rabbits; i.v. infusion 4.0 μg/kg/min): −12.8 mmHg; HR, mean difference from control (conscious rabbits; i.v. infusion 4.0 μg/kg/min): 13.8 bpm; Mean BP, mean difference from control (conscious rabbits; i.v. infusion 4.0 μg/kg/min): −15.9 mmHg; Systolic BP, mean difference from control (conscious rabbits; i.v. infusion 4.0 μg/kg/min): −14.9 mmHg; recovery of MAP from the hypotension, in words (conscious rabbits; one hour after the end of infusion): MAP had not changed
